These results are taken from BindingDB's records for patent US9233979 (Merck Sharp & Dohme, 2016).

In this experiment the target is Mitogen-activated protein kinase 1 (Homo sapiens, UniProt P28482). Nature of the experiment: IMAP-FP Assay. The protocol:
Activated ERK2 activity was determined in an IMAP-FP assay (Molecular Devices).

Mitogen-activated protein kinase 1, sequence (P28482 whole entry): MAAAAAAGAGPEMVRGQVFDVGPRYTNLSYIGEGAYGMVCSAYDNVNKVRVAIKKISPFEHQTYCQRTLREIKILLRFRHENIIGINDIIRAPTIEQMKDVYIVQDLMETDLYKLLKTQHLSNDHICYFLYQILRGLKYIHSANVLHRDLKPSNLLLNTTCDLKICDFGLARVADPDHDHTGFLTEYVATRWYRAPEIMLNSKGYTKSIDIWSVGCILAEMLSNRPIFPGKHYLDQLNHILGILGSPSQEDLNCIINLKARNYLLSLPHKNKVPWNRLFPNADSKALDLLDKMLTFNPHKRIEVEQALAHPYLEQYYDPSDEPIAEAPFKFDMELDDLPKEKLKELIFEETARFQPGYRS

For `COC1CN(c2n[nH]c3cc(NC(=O)N[C@H](C)c4ccc(F)cc4)ncc23)C1` [US9233979, 23], the IC50 (as a rule, the concentration that inhibits the measured activity by half) is 8.69 nM.
